# Earlier results as cited in US20020019373A1, “Combinations of bisphosphonates and estrogenic agents” (American Home Products Corporation, priority 2000, published 2002).
# System: Paget's disease of the bone
# Settings: approved by the FDA for Paget's disease of the bone (30-mg tablets)
smiles,measurement,value
O=P(O)(O)C(O)(Cc1cccnc1)P(=O)(O)O [Risedronate],effectiveness in clinical trials,effective
